Measurements as given in ChEMBL document CHEMBL5726535, “Use of agonists of formyl peptide receptor 2 for treating ocular inflammatory diseases” (2019).

Target: T1, N-formyl peptide receptor 2 (Homo sapiens, UniProt P25090)
T1 sequence (P25090 whole entry): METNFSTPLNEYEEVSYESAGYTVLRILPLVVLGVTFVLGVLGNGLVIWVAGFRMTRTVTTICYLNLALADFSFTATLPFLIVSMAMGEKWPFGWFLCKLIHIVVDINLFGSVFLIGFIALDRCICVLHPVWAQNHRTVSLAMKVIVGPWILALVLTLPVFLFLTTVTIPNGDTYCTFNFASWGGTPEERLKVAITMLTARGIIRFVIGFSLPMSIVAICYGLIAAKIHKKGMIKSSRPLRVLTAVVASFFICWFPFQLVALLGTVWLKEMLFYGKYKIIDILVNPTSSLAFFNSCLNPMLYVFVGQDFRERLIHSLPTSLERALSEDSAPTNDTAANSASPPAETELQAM
Assay: FLIPR: HEK-Gα16 cells stably expressing the human FPR2 receptor was utilized. Cells were plated into 384-well poly-D-lysine coated plates at a density of 18,000 cells per well one day prior to use. The growth media was DMEM medium supplemented with 10% fetal bovine serum (FBS), 1% antibiotic-antimycotic, 50 μg/ml hygromycin, and 400 μg/ml geneticin. On the day of the experiment, the cells were …

EC50: < 1 nM
Compound: NC(=O)C1C(C(=O)Nc2ccc(Br)cc2)C2CCC1C21CC1 (single isomer, unassigned)
